In one experiment the test system is MDR-M. tb 08/00483E. In words: microbe, parasite or virus in culture. Type of experiment: cell-based, Mycobacterium tuberculosis. To be noted: for MIC99: Mycobacterium tuberculosis, read-out: MDR-M. tb 08/00483E MIC99.
For experiment [1], the system named is M. smegmatis and M. bovis BCG.

The text below walks through data of PMC10895678 (Journal of Medicinal Chemistry, 2024).

In brackets after ≈: the same amount, converted by molar mass.

Consider `CNCC1CC(c2ccc(OC(F)(F)F)cc2)N1Cc1ccccc1OC(F)(F)F` (centres unmarked) [BGAz-005], for which, in the experiment on MDR-M. tb 08/00483E, the “fold lower MIC in MDR isolate 08/00483E in comparison to the drug-sensitive isolate” value was 8 fold and the MIC99 amounted to 2.8 µM (≈ 1.22 µg/mL). In the case of `Brc1cc(Br)cc(C2CC(CN3CCCC3)N2Cc2ccccc2Br)c1` (centres unmarked) [BGAz-004], in the experiment with MDR-M. tb 08/00483E, the MIC99 was 15.6 µM (≈ 8.47 µg/mL).

Take `FC(F)(F)Oc1ccc(C2CC(CN3CCCC3)N2Cc2ccccc2OC(F)(F)F)cc1` (centres unmarked) [BGAz-002]: in the experiment on MDR-M. tb 08/00483E, the MIC99 was 33.5 µM (≈ 15.9 µg/mL). In experiment [1], the resistant colonies formed entry was “three resistant colonies”.
